From patent US20160287571A1, “PHARMACEUTICAL COMPOSITIONS COMPRISING ANTIBACTERIAL AGENTS” (priority 2013, published 2016) come the findings set out here.

Where two headings read alike, the source gives them in different places. Bounds are passed on as bounds.

What all share (type): cell-based, Acinetobacter baumannii
The test system of experiment [1] is A. baumannii M 126 (OXA 51, OXA 23). Kind of experiment: MIC in Muller Hinton Agar (CLSI agar dilution). The procedure:
(§1) The antibacterial activity of combinations according to the invention against resistant bacterial strains was investigated. Minimum Inhibitory Concentration (MIC) for the combinations according to invention was determined in Muller Hinton Agar (MHA) (BD, USA) according to Clinical and Laboratory Standards Institute (CLSI) recommendations (Clinical and Laboratory Standards Institute (CLSI), Performance Standards for Antimicrobial Susceptibility Testing, 20th Informational Supplement, M 100-S20, Volume 30, No. 1, 2010). Typically, the test strains were adjusted to deliver about 10^4 CFU per spot with a multipoint inoculator (Applied Quality Services, UK). The plates were pored with MHA containing doubling concentration range of the test combinations according to invention. The plates were inoculated and were incubated at 35° C. for 18 hours.
In general terms: Agar dilution tests growth on a series of plates holding different concentrations.

Experiment [2] concerns A. baumannii G 156 (OXA 51, OXA 23). Kind of experiment: MIC in Muller Hinton Agar (CLSI agar dilution). The procedure:
as §1

For experiment [3], the system named is A. baumannii Q 1460648 (OXA 51, OXA 23). Kind of experiment: MIC in Muller Hinton Agar (CLSI agar dilution). The procedure: as §1
Experiment [4] concerns A. baumannii NCTC 13304 (OXA 51, OXA 27). Kind of experiment: MIC in Muller Hinton Agar (CLSI agar dilution). The procedure: as §1
The test system of experiment [5] is A. baumannii NCTC 13303 (OXA 51, OXA 26). Kind of experiment: MIC in Muller Hinton Agar (CLSI agar dilution). The procedure: as §1
Experiment [6] has as its system A. baumannii NCTC 13305 (OXA 51, OXA 58). Kind of experiment: MIC in Muller Hinton Agar (CLSI agar dilution). The procedure: as §1
In experiment [7] the test system is A. baumannii NCTC 13302 (OXA 51, OXA 25). Kind of experiment: Time kill study. Particulars: for Bacterial count: initial count 6.54 log CFU/ml; for Effect on bacterial counts throughout the duration of the study (in words): A. baumannii NCTC 13302, summary of Table 3. The procedure:
(§2) The synergistic killing effect of the combinations according to invention was studied using time kill studies. In a typical time kill study, freshly grown cultures were diluted to the required cell density (initial starting inoculum) in Cation adjusted Muller Hinton broth medium (BD, USA). The antibacterial agents (either alone or in combination) at the required concentrations were added into the culture-containing medium. The samples were incubated under shaking condition (120 rpm) at 37° C. Enumeration of viable bacterial count was done every 2 hour by diluting in normal saline and plating on to the Tryptic Soya Agar plates (BD, USA). The plates were incubated for 24 hours to arrive at the viable bacterial count. The results are expressed in terms of Log CFU per […]. In general, the decrease of 1 Log CFU/ml, corresponds to 90% killing of bacteria. Similarly, 2 Log CFU/ml reductions indicates 99% killing of bacteria and 3 Log CFU/ml reductions is equal to 99.9% killing of bacteria.

For experiment [8], the system named is A. baumannii NCTC 13304 (OXA 51, OXA 27). Kind of experiment: Time kill study. Particulars: for Bacterial count: initial count 6.06 log CFU/ml. The procedure:
as §2

Experiment [9] relates to A. baumannii NCTC 13302 (OXA 51, OXA 25). Kind of experiment: MIC in Muller Hinton Agar (CLSI agar dilution). The procedure:
as §1

For experiment [10], the system named is A. baumannii J 144 (OXA 51, OXA 23). Kind of experiment: MIC in Muller Hinton Agar (CLSI agar dilution). The procedure:
as §1

For experiment [11], the system named is A. baumannii NCTC 13301 (OXA 51, OXA 23). Kind of experiment: MIC in Muller Hinton Agar (CLSI agar dilution). The procedure: as §1
Where [12] appears, read: Acinetobacter baumannii, agent alone, A. baumannii M 126, read-out: MIC.
Where [13] appears, read: Acinetobacter baumannii, agent alone, A. baumannii G 156, read-out: MIC.
Setting [14] is: Acinetobacter baumannii, agent alone, A. baumannii Q 1460648, read-out: MIC.
Where [15] appears, read: Acinetobacter baumannii, NCTC13304, agent alone, A. baumannii NCTC 13304, read-out: MIC.
[16] abbreviates: Acinetobacter baumannii, NCTC13303, agent alone, A. baumannii NCTC 13303, read-out: MIC.
Setting [17] is: Acinetobacter baumannii, NCTC13305, agent alone, A. baumannii NCTC 13305, read-out: MIC.
Where [18] appears, read: Acinetobacter baumannii, NCTC13302, agent alone, A. baumannii NCTC 13302, read-out: MIC.
[19] abbreviates: Acinetobacter baumannii, agent alone, A. baumannii J 144, read-out: MIC.
Where [20] appears, read: Acinetobacter baumannii, NCTC13301, agent alone, A. baumannii NCTC 13301, read-out: MIC.
[21] abbreviates: 2 hours, agent alone at 4 mcg/ml.
Setting [22] is: 4 hours, agent alone at 4 mcg/ml.
The mark [23] stands for this setting: 6 hours, agent alone at 4 mcg/ml.

The MIC is the lowest concentration that inhibits growth of the organism. On to `C[C@@H](O)[C@H]1C(=O)N2C(C(=O)O)=C(S[C@@H]3CN[C@H](C(=O)N(C)C)C3)[C@H](C)[C@H]12` [Meropenem, meropenem], for which the MIC in [1] (setting [12]) is 32 µg/mL; in experiment [2] (setting [13]) it was 32 µg/mL; in experiment [3] (setting [14]), 32 µg/mL; in experiment [4] (setting [15]) it was 32 µg/mL; in experiment [5] (setting [16]) it was over 32 µg/mL; in experiment [6] (setting [17]) it was 4 µg/mL.
For the compound `C[C@@H](O)[C@H]1C(=O)N2C(C(=O)O)=C(SCCN=CN)C[C@H]12` [Imipenem, imipenem], the Bacterial count was found to be 7.87 Log CFU/ml in experiment [7] (2 hours, agent alone at 8 mcg/ml); 8.27 Log CFU/ml in experiment [7] (4 hours, agent alone at 8 mcg/ml); 8.07 Log CFU/ml in experiment [7] (6 hours, agent alone at 8 mcg/ml); 8.47 Log CFU/ml in [7] (8 hours, agent alone at 8 mcg/ml); 6.34 Log CFU/ml in experiment [8] (2 hours, agent alone at 16 mcg/ml); 7.47 Log CFU/ml in experiment [8] (4 hours, agent alone at 16 mcg/ml). In addition, the Bacterial count in [8] (6 hours, agent alone at 16 mcg/ml) stood at 7.07 Log CFU/ml. The minimal inhibitory concentration (MIC) in experiment [1] (setting [12]) was 16 µg/mL; in experiment [9] (setting [18]) it was over 32 µg/mL; in experiment [2] (setting [13]), 16 µg/mL; in experiment [10] (setting [19]) it was over 32 µg/mL; in experiment [11] (setting [20]), 32 µg/mL; in experiment [3] (setting [14]), 32 µg/mL. The values for the MIC in [4] (setting [15]), in experiment [5] (setting [16]) and in experiment [6] (setting [17]) were 32 µg/mL, over 32 µg/mL and 8 µg/mL, respectively.
Turning to `O=C(NNC(=O)[C@@H]1CC[C@@H]2CN1C(=O)N2OS(=O)(=O)O)[C@@H]1CCCNC1` [Compound of Formula (I), (2S, 5R)-sulphuric acid mono-[2-(N′-[(R)-piperidin-3-carbonyl]-hydrazinocarbonyl)-7-oxo-1,6-diaza-bicyclo[3.2.1]oct-6-yl] ester], the Bacterial count is 7.5 Log CFU/ml in experiment [7] (setting [21]); 7.8 Log CFU/ml in experiment [7] (setting [22]); 7.95 Log CFU/ml in [7] (setting [23]); 8.4 Log CFU/ml in experiment [7] (8 hours, agent alone at 4 mcg/ml); 7 Log CFU/ml in experiment [8] (setting [21]); 7.55 Log CFU/ml in experiment [8] (setting [22]). In addition, the Bacterial count in experiment [8] (setting [23]) came to 8.1 Log CFU/ml. The “Effect on bacterial counts throughout the duration of the study (in words)” value in experiment [7] is listed as “did not reduce the bacterial counts”; in experiment [8] (A. baumannii NCTC 13304, summary of Table 4), “did not reduce the bacterial counts”. Moreover, the MIC in experiment [1] (setting [12]), in experiment [9] (setting [18]), in experiment [2] (setting [13]), in [10] (setting [19]), in experiment [11] (setting [20]) and in experiment [3] (setting [14]) was over 32 µg/mL in each case. Also, the minimum inhibitory concentration (MIC) in experiment [4] (setting [15]), in experiment [5] (setting [16]) and in experiment [6] (setting [17]) was over 32 µg/mL in each case.
For the compound `CN(C)c1cc(NC(=O)CNC(C)(C)C)c(O)c2c1C[C@H]1C[C@H]3[C@H](N(C)C)C(O)=C(C(N)=O)C(=O)[C@@]3(O)C(O)=C1C2=O` [Tigecycline, tigecycline], the Bacterial count in [7] (2 hours, agent alone at 1 mcg/ml) was found to be 3.47 Log CFU/ml; in experiment [7] (4 hours, agent alone at 1 mcg/ml), 3 Log CFU/ml; in experiment [7] (6 hours, agent alone at 1 mcg/ml), 3 Log CFU/ml; in [7] (8 hours, agent alone at 1 mcg/ml) it was 3.23 Log CFU/ml. The “Effect on bacterial counts throughout the duration of the study (in words)” value in experiment [7] is reported as “exhibited the reduction of the bacterial counts”. Besides, the MIC in [1] (Acinetobacter baumannii) was 0.5 µg/mL; in experiment [9] (Acinetobacter baumannii, NCTC13302), 2 µg/mL; in experiment [2] (Acinetobacter baumannii), 1 µg/mL; in experiment [10] (Acinetobacter baumannii) it was 2 µg/mL; in [11] (Acinetobacter baumannii, NCTC13301) it was 2 µg/mL; in experiment [3] (Acinetobacter baumannii), 1 µg/mL. The MIC in [4] (Acinetobacter baumannii, NCTC13304) was 0.5 µg/mL; in experiment [5] (Acinetobacter baumannii, NCTC13303) it was 2 µg/mL; in experiment [6] (Acinetobacter baumannii, NCTC13305), 0.5 µg/mL.
For colistin, the MIC in experiment [1] (agent alone, A. baumannii M 126) came to 1 µg/mL; in experiment [9] (agent alone, A. baumannii NCTC 13302), 2 µg/mL; in experiment [2] (agent alone, A. baumannii G 156), 1 µg/mL; in experiment [10] (agent alone, A. baumannii J 144), 1 µg/mL; in [11] (agent alone, A. baumannii NCTC 13301) it was 2 µg/mL; in experiment [3] (agent alone, A. baumannii Q 1460648), 1 µg/mL. Also, the MIC in [4] (agent alone, A. baumannii NCTC 13304) amounted to 1 µg/mL; in experiment [5] (agent alone, A. baumannii NCTC 13303) it was 1 µg/mL; in [6] (agent alone, A. baumannii NCTC 13305), 1 µg/mL.
